In ChEMBL document CHEMBL3232888, “Optimization of anti-virulence PqsR antagonists regarding aqueous solubility and biological properties resulting in new insights in structure-activity relationships” (Eur J Med Chem, 2014):
Values after ≈ are worked out from the molar mass of the structure shown.

Columns and labels:
[1] = system: Pseudomonas aeruginosa; test: Antagonist activity at Pseudomonas aeruginosa PqsR expressed in Escherichia coli DH5alpha assessed as inhibition of PQS-induced transcriptional activity at 50 nM by beta-galactosidase reporter gene assay relative to PQS
[2] = Aqueous solubility of the compound in 2% DMSO at pH 7.4 by HPLC analysis; format: physicochemical; conditions: aqueous medium with 2% DMSO
[3] = system: Pseudomonas aeruginosa; test: Agonist activity at Pseudomonas aeruginosa PqsR expressed in Escherichia coli DH5alpha assessed as induction of transcriptional activity at 5 uM by beta-galactosidase reporter gene assay relative to PQS
[4] = system: Pseudomonas aeruginosa; test: Antagonist activity at Pseudomonas aeruginosa PqsR expressed in Escherichia coli DH5alpha assessed as inhibition of PQS-induced transcriptional activity at 5 uM by beta-galactosidase reporter gene assay relative to PQS
[5] = system: Pseudomonas aeruginosa; test: Antivirulence activity in Pseudomonas aeruginosa PA14 assessed as reduction of extracellular level of pyocyanin at 100 uM relative to control; format: functional; design: scale not given: the % may be the effect or the level left
[6] = system: Pseudomonas aeruginosa; test: Antivirulence activity in Pseudomonas aeruginosa PA14 assessed as reduction of extracellular level of PQS at 100 uM by UHPLC-MS/MS analysis relative to control; format: functional; design: scale not given: the % may be the effect or the level left
[7] = Antagonist activity at Pseudomonas aeruginosa PqsR expressed in Escherichia coli DH5alpha assessed as inhibition of PQS-induced transcriptional activity by beta-galactosidase reporter gene assay relative to PQS
[8] = system: Pseudomonas aeruginosa; test: Growth inhibition of Pseudomonas aeruginosa; format: organism-based; conditions: in vivo
[9] = system: Pseudomonas aeruginosa; test: Antivirulence activity in Pseudomonas aeruginosa PA14 assessed as reduction of extracellular level of pyocyanin at 15 uM relative to control; format: functional; design: scale not given: the % may be the effect or the level left
[10] = Metal chelating activity of the compound assessed as CAS iron-chelation after 15 mins; format: physicochemical; conditions: 0.25 h
[11] = system: Pseudomonas aeruginosa; test: Antivirulence activity in Pseudomonas aeruginosa PA14 assessed as reduction of extracellular level of pyocyanin; format: functional
[12] = system: Pseudomonas aeruginosa; test: Antivirulence activity in Pseudomonas aeruginosa PA14 assessed as reduction of extracellular level of PQS at 15 uM by UHPLC-MS/MS analysis relative to control; format: functional; design: scale not given: the % may be the effect or the level left
[13] = system: Pseudomonas aeruginosa; test: Antivirulence activity in Pseudomonas aeruginosa PA14 assessed as reduction of extracellular level of PQS at 10 uM by UHPLC-MS/MS analysis relative to control; format: functional; design: scale not given: the % may be the effect or the level left
[14] = system: Pseudomonas aeruginosa; test: Antivirulence activity in Pseudomonas aeruginosa PA14 assessed as reduction of extracellular level of pyocyanin at 10 uM relative to control; format: functional; design: scale not given: the % may be the effect or the level left
[15] = system: Pseudomonas aeruginosa; test: Agonist activity at Pseudomonas aeruginosa PqsR expressed in Escherichia coli DH5alpha assessed as induction of transcriptional activity at 1 uM by beta-galactosidase reporter gene assay relative to PQS
[16] = system: Pseudomonas aeruginosa; test: Agonist activity at Pseudomonas aeruginosa PqsR expressed in Escherichia coli DH5alpha assessed as induction of transcriptional activity at 10 uM by beta-galactosidase reporter gene assay relative to PQS
[17] = system: Pseudomonas aeruginosa; test: Antivirulence activity in Pseudomonas aeruginosa PA14 assessed as reduction of extracellular level of PQS at 250 uM by UHPLC-MS/MS analysis relative to control; format: functional; design: scale not given: the % may be the effect or the level left
[18] = system: Pseudomonas aeruginosa; test: Antivirulence activity in Pseudomonas aeruginosa PA14 assessed as reduction of extracellular level of pyocyanin at 250 uM relative to control; format: functional; design: scale not given: the % may be the effect or the level left

SMILES	inhibition [1]	solubility [2]	Activity [3]	inhibition [4]	IC50 [7]	Activity [8]	other results
CCOCCCCc1cc(=O)c2cc([N+](=O)[O-])ccc2[nH]1	6%	50 µM (≈ 14.5 µg/mL)	0.13%	72%	3510 nM	Non-toxic	Activity [5]: 23%; Activity [6]: 13%
CCCCCCCc1[nH]c2ccc([N+](=O)[O-])cc2c(=O)c1C(=O)OCC	-8%	5 µM (≈ 1.8 µg/mL)	0%	20%			
CCCCCCCc1[nH]c2ccc([N+](=O)[O-])cc2c(=O)c1CO	45%	5 µM (≈ 1.59 µg/mL)	0%	100%	72 nM	Non-toxic	Activity [9]: 83%; Activity [10]: Not Active; IC50 [11]: 3800 nM; Activity [12]: 33%
CCCCCCCc1cc(=O)c2cc(C(F)(F)F)ccc2n1C	31%	5 µM (≈ 1.63 µg/mL)	0%	100%	270 nM	Non-toxic	Activity [9]: 58%; Activity [12]: 8.9%
CCCCCCCc1cc(=O)c2cc(C(F)(F)F)ccc2[nH]1	54%	< 5 µM	0%	100%	54 nM	Non-toxic	Activity [13]: 2.4%; Activity [14]: 27%
CCCCCCCc1[nH]c2ccc([N+](=O)[O-])cc2c(=O)c1O	-31%	< 5 µM	1.25%	-29%			
CCCCCOCc1cc(=O)c2cc([N+](=O)[O-])ccc2[nH]1	49%	15 µM (≈ 4.35 µg/mL)	0%	100%	253 nM	Non-toxic	Activity [9]: 27%; Activity [12]: 23%
CCCCCCCc1[nH]c2ccc([N+](=O)[O-])cc2c(=O)c1C(N)=O	60%	15 µM (≈ 4.97 µg/mL)	0%	100%	35 nM	Non-toxic	Activity [9]: 81%; Activity [10]: Not Active; IC50 [11]: 2000 nM; Activity [12]: 37%
CCCCCCCc1[nH]c2ccc([N+](=O)[O-])cc2c(=O)c1C(=O)O	11%	15 µM (≈ 4.99 µg/mL)	0.78%	34%			
CCCCCCCc1cc(=O)c2ccccc2[nH]1							Activity [15]: 0.75%
CCCCCOCc1[nH]c2ccc([N+](=O)[O-])cc2c(=O)c1C(=O)O	7%	50 µM (≈ 16.7 µg/mL)	0.48%	6%			
CCCCCCCc1cc(=O)c2cc([N+](=O)[O-])ccc2[nH]1	73%	< 5 µM		100%	51 nM	Non-toxic	Activity [16]: 0%; Activity [9]: 44%; Activity [12]: 14%
CCOCCCCc1cc(=O)c2cc(C(F)(F)F)ccc2[nH]1	8%	> 200 µM	0.02%	69%	1710 nM	Non-toxic	Activity [17]: 8.6%; Activity [18]: 39%
CCCCCCCc1cc(=O)c2cnccc2[nH]1	8%	50 µM (≈ 12.2 µg/mL)	0.82%	2%			
CCCCCOCc1cc(=O)c2cc(C(F)(F)F)ccc2[nH]1	29%	15 µM (≈ 4.7 µg/mL)	0%	100%	172 nM	Non-toxic	Activity [9]: 29%; Activity [12]: 21%
CCCCCCCc1cc(O)c2ccccc2n1		15 µM (≈ 3.65 µg/mL)					
CCCCCCCc1[nH]c2ccccc2c(=O)c1C(=O)NO	15%	> 200 µM	0.83%	29%			
CCCCCCCc1[nH]c2ccccc2c(=O)c1N	-4%	50 µM (≈ 12.9 µg/mL)	1.22%	-7%			
CCCCCOCc1[nH]c2ccc([N+](=O)[O-])cc2c(=O)c1C(=O)OCC	2%	15 µM (≈ 5.44 µg/mL)	0%	13%			

More lines, main results first:

inhibition [1]	solubility [2]	Activity [3]	inhibition [4]	SMILES	IC50 [7]	Activity [8]	other results
14%	< 5 µM	0.84%	17%	CCCCCCCc1[nH]c2ccccc2c(=O)c1[N+](=O)[O-]			
-23%	5 µM (≈ 1.29 µg/mL)	0.03%	-6%	CCCCCCCc1cc(OC)c2ccccc2n1			
30%	> 200 µM	0.3%	78%	CCCCCCCc1[nH]c2ccc([N+](=O)[O-])cc2c(=O)c1C(=O)NO			
5%	50 µM (≈ 13.7 µg/mL)	0.49%	28%	CCCCCCCc1[nH]c2ccccc2c(=O)c1CO			
11%	> 200 µM	0.89%	6%	CCCCCOCc1cc(=O)c2ccccc2[nH]1			
1%	50 µM (≈ 16.7 µg/mL)	0.42%	33%	CCOCCCCc1[nH]c2ccc([N+](=O)[O-])cc2c(=O)c1C(=O)O			
6%	50 µM (≈ 14.4 µg/mL)	0.66%	20%	CCCCCCCc1[nH]c2ccncc2c(=O)c1C(=O)O			
8%	5 µM (≈ 1.43 µg/mL)	0.65%	27%	CCCCCCCc1[nH]c2ccccc2c(=O)c1C(N)=O			
24%	50 µM (≈ 15.8 µg/mL)	0.02%	76%	CCCCCCCc1[nH]c2ccncc2c(=O)c1C(=O)OCC			
18%	5 µM (≈ 1.58 µg/mL)	0%	32%	CCCCCCCc1[nH]c2ccccc2c(=O)c1C(=O)OCC			
54%	> 200 µM	0.31%	42%	CCOCCCCc1cc(=O)c2ccccc2[nH]1			
12%	15 µM (≈ 4.31 µg/mL)	0.73%	41%	CCCCCCCc1[nH]c2ccccc2c(=O)c1C(=O)O			
2%	5 µM (≈ 1.81 µg/mL)	0.09%	27%	CCOCCCCc1[nH]c2ccc([N+](=O)[O-])cc2c(=O)c1C(=O)OCC			
45%	15 µM (≈ 4.67 µg/mL)	0%	100%	CCCCCCc1cc(=O)c2cc(C(F)(F)F)ccc2n1C	229 nM	Non-toxic	
